Results on seven molecules are retold here after PMC11595424, “Heterocycles and a Sorbicillinoid from the Coral-Derived Fungus Penicillium chrysogenum” (Marine Drugs, 2024).

Common to all, as to assay type: cell-based
Assay [1] concerns ASPC-1 (human pancreatic cancer). Put plainly: Cytotoxicity assay, SRB method, ASPC-1. To be noted: for IC50: Homo sapiens, ASPC1, ASPC-1 cells, SRB method. On the procedure:
(§1) The cytotoxic activity against the K562 (human leukemia) cell line was evaluated by MTT method, and the cytotoxic activities against L-02 (normal human hepatocytes), ASPC-1 (human pancreatic cancer), MDA-MB-231 (human breast cancer), NCI-H446, and NCI-H446/EP (human small cell lung cancer) cell lines were determined by SRB method. The difference between the two human small-cell lung cancer cell lines is that NCI-H446 is a sensitive cell line while the NCI-H446/EP cell line is resistant to cisplatin, etoposide, SN38, and doxorubicin. As a positive control, doxorubicin was used. […]
(§2) The cytotoxic activity against the K562 (human leukemia) cell line was evaluated by MTT method, and the cytotoxic activities against L-02 (normal human hepato-cytes), ASPC-1 (human pancreatic cancer), MDA-MB-231 (human breast cancer), NCI-H446 and NCI-H446/EP (human small cell lung cancer) cell lines were determined by SRB method.
(§3) Doxorubicin was used as a positive control.
(§4) In the cytotoxic assay, preliminary screening for cytotoxicity of compounds was performed at the concentration of 30 μM, then the compounds with inhibition rate greater than 60 % were rescreened for the IC 50 values. The blank control, vehicle control, positive control (doxorubicin) and compounds at five different concentrations (30, 15, 3.75, 1.875 and 0.9375 μM) were tested three times and the average OD values were taken to calculated IC50 values.
(§5) Table S11. Cytotoxic activities of 1−5
(§6) Compound c Inhibition rate (%) […]
(§7) a Doxorubicin was used as positive control. […]
In general terms: Sulforhodamine B stains cellular protein and so reports cell mass.

For assay [2], the system named is MDA-MB-231 (human breast cancer). Kind of assay: Cytotoxicity assay, SRB method, MDA-MB-231. To be noted: for IC50: Homo sapiens, MDA-MB-231 cells, SRB method. The method, then: as §1, §2, §3, §4, §5, §6, §7
In assay [3] the test system is NCI-H446 (human small cell lung cancer) cell line. Put plainly: Cytotoxicity assay, SRB method, NCI-H446. To be noted: for IC50: Homo sapiens, NCI-H446 (sensitive) cells, SRB method; for Inhibition rate (%): Table S13, NCI-H446, IC50 rescreen. On the procedure: as §1, §2, §3, §4, §5, §6, §7
Table S13. Cytotoxicity against NCI-H446 cell line of 5 c (μM) OD value Inhibition rate (%) IC 50 ( μM)

In assay [4] the test system is K562 (human leukemia) cell line. Put plainly: Cytotoxicity assay, MTT method, K562. As to conditions: for IC50: Homo sapiens, K562 cell line, MTT method; for Inhibition rate (%): Table S12, K562, IC50 rescreen. The method, then:
as §1, §2, §3, §4, §5, §6
a Doxorubicin was used as positive control.
Table S12. Cytotoxicity against K562 cell line of 5
Background: Formazan colour is commonly taken as a measure of viable cells.

The test system of assay [5] is NCI-H446/EP (human small cell lung cancer) cell line. Kind of assay: Cytotoxicity assay, SRB method, NCI-H446/EP. To be noted: for IC50: Homo sapiens, NCI-H446/EP cells (resistant to cisplatin, etoposide, SN38, doxorubicin), SRB method. The method, then:
as §1, §2, §3, §4, §5, §6, §7

In assay [6] the test system is L-02 (normal human hepatocytes). Kind of assay: Cytotoxicity assay, SRB method, L-02. As to conditions: for IC50: Homo sapiens, L02, L-02 cells, SRB method. The method, then: as §1, §2, §3, §4, §5, §6, §7
Assay [7] has as its system NCI-H446 (human small cell lung cancer) cell line. Kind of assay: Cytotoxicity assay, SRB method, NCI-H446. To be noted: Table S13, NCI-H446, IC50 rescreen, c 7.5 μM.
Assay [8] has as its system K562 (human leukemia) cell line. Put plainly: Cytotoxicity assay, MTT method, K562. As to conditions: Table S12, K562, IC50 rescreen, c 7.5 μM.
The mark [9] stands for this setting: Table S11, preliminary screening, c 30 μM.
The mark [10] stands for this setting: Table S11, positive control, c 1 μM.

In the case of `CC1C(CCc2nc3ccccc3c(=O)[nH]2)C2CC(=O)C1(C)C(=O)C2(C)O` (stereo not shown) [Compound 1, Chrysoquinazolinone A], the IC50 in assay [1], in assay [2], in assay [3], in assay [4], in assay [5] and in assay [6] was more than 30 µM in each case. Besides, the “Inhibition rate (%) ASPC-1” value in assay [1] (setting [9]) is on record as 0.00%. Further, in assay [2] (setting [9]), the “Inhibition rate (%) MDA-MB-231” value is -4.59%. Moreover, the “Inhibition rate (%) NCI-H446” value in assay [3] (setting [9]) was determined as 2.22%. Further, the “Inhibition rate (%) K562” value in assay [4] (setting [9]) is recorded as 35.08%. For the same molecule, in assay [5] (setting [9]), the “Inhibition rate (%) NCI-H446/EP” value worked out at 9.68%. The “Inhibition rate (%) L-02” value in assay [6] (setting [9]) is -0.42%.

As for `CC(c1nc2ccccc2c(=O)[nH]1)N1CCCC1=O` (stereo not shown) [Compound 2, Chrysoquinazolinone B], the half-maximal inhibitory concentration (IC50) in assay [1], in assay [2], in assay [3], in assay [4], in assay [5] and in assay [6] was more than 30 µM each time. Also, in assay [1] (setting [9]), the “Inhibition rate (%) ASPC-1” value was 7.93%. In addition, the “Inhibition rate (%) MDA-MB-231” value in assay [2] (setting [9]) was 5.80%. Further, in assay [3] (setting [9]), the “Inhibition rate (%) NCI-H446” value is given as 4.70%. For the same molecule, the “Inhibition rate (%) K562” value in assay [4] (setting [9]) was determined as 33.57%. For the same molecule, in assay [5] (setting [9]), the “Inhibition rate (%) NCI-H446/EP” value turned out to be 12.47%. Also, the “Inhibition rate (%) L-02” value in assay [6] (setting [9]) stood at 0.28%.

As for `Cc1cc(O)c(CC[C@@H](C)C(=O)O)c2scnc12` [Compound 3a, Chrysobenzothiazole A], the IC50 in assay [1], in assay [2], in assay [3], in assay [4], in assay [5] and in assay [6] was more than 30 µM each time. The “Inhibition rate (%) ASPC-1” value in assay [1] (setting [9]) was determined as 18.16%. For the same molecule, the “Inhibition rate (%) MDA-MB-231” value in assay [2] (setting [9]) is 0.40%. Also, the “Inhibition rate (%) NCI-H446” value in assay [3] (setting [9]) came out at 1.04%. Besides, the “Inhibition rate (%) K562” value in assay [4] (setting [9]) amounted to 20.39%. Also, the “Inhibition rate (%) NCI-H446/EP” value in assay [5] (setting [9]) was found to be 11.04%. The “Inhibition rate (%) L-02” value in assay [6] (setting [9]) is recorded as 10.94%.

On to `Cc1cc(O)c(CC[C@H](C)C(=O)O)c2scnc12` [Compound 3b, Chrysobenzothiazole A], for which the IC50 in assay [1], in assay [2], in assay [3], in assay [4], in assay [5] and in assay [6] was more than 30 µM throughout. Further, the “Inhibition rate (%) ASPC-1” value in assay [1] (setting [9]) worked out at 2.09%. Besides, the “Inhibition rate (%) MDA-MB-231” value in assay [2] (setting [9]) was -4.16%. For the same molecule, the “Inhibition rate (%) NCI-H446” value in assay [3] (setting [9]) amounted to 9.14%. Besides, the “Inhibition rate (%) K562” value in assay [4] (setting [9]) is given as 34.54%. In addition, the “Inhibition rate (%) NCI-H446/EP” value in assay [5] (setting [9]) was determined as 14.64%. In addition, in assay [6] (setting [9]), the “Inhibition rate (%) L-02” value is recorded as -5.91%.

With `Cc1c(O)cc(CCC(C)C(=O)O)c2ncsc12` (stereo not shown) [Compound 4, chrysobenzothiazole B], the IC50 in assay [1], in assay [2], in assay [3], in assay [4], in assay [5] and in assay [6] was more than 30 µM throughout. The “Inhibition rate (%) ASPC-1” value in assay [1] (setting [9]) came to 8.56%. Besides, in assay [2] (setting [9]), the “Inhibition rate (%) MDA-MB-231” value came out at 6.32%. For the same molecule, in assay [3] (setting [9]), the “Inhibition rate (%) NCI-H446” value is 6.55%. Further, the “Inhibition rate (%) K562” value in assay [4] (setting [9]) is 37.63%. Besides, the “Inhibition rate (%) NCI-H446/EP” value in assay [5] (setting [9]) is given as 7.13%. Besides, the “Inhibition rate (%) L-02” value in assay [6] (setting [9]) is -1.81%.

On to `C/C=C/C=C/C(=O)c1cc(C)c(C(=O)O)c(C)c1O` [Compound 5, 4-Carboxylsorbicillin], for which the IC50 (in general, the concentration that inhibits the measured activity by half) in assay [1] is more than 30 µM; in assay [2] it was more than 30 µM; in assay [3], 16.9 µM; in assay [4], 15 µM; in assay [5], more than 30 µM; in assay [6], more than 30 µM. Besides, the “Inhibition rate (%) ASPC-1” value in assay [1] (setting [9]) is reported as 25.47%. Also, the “Inhibition rate (%)” value in assay [7] was 14.10%; in assay [3] (c 0.9375 μM), -8.00%; in assay [3] (c 1.875 μM), 0.43%; in assay [3] (c 3.75 μM), 2.66%; in assay [3] (c 15 μM) it was 51.20%; in assay [3] (c 30 μM), 74.28%. The “Inhibition rate (%)” value in assay [4] (c 0.9375 μM) is on record as 8.60%; in assay [4] (c 1.875 μM) it was 7.71%; in assay [4] (c 3.75 μM), 13.35%; in assay [4] (c 15 μM) it was 47.36%; in assay [4] (c 30 μM), 77.22%; in assay [8], 20.85%. Besides, the “Inhibition rate (%) MDA-MB-231” value in assay [2] (setting [9]) is reported as -14.63%. The “Inhibition rate (%) NCI-H446” value in assay [3] (setting [9]) was determined as 86.08%. Further, the “Inhibition rate (%) K562” value in assay [4] (setting [9]) is 97.15%. In assay [5] (setting [9]), the “Inhibition rate (%) NCI-H446/EP” value is listed as 54.99%. Moreover, the “Inhibition rate (%) L-02” value in assay [6] (setting [9]) was 13.89%.

Take `COc1cccc2c1C(=O)c1c(O)c3c(c(O)c1C2=O)C[C@@](O)(C(=O)CO)C[C@@H]3O[C@H]1C[C@H](N)[C@H](O)[C@H](C)O1` [Doxorubicin, reference compound]: the IC50 is more than 1 µM in assay [1]; less than 1 µM in assay [2]; less than 1 µM in assay [3]; less than 1 µM in assay [4]; more than 1 µM in assay [5]; less than 1 µM in assay [6]. In addition, the “Inhibition rate (%) ASPC-1” value in assay [1] (setting [10]) amounted to 29.65%. For the same molecule, the “Inhibition rate (%) MDA-MB-231” value in assay [2] (setting [10]) is 65.37%. Moreover, in assay [3] (setting [10]), the “Inhibition rate (%) NCI-H446” value came out at 52.20%. In assay [4] (setting [10]), the “Inhibition rate (%) K562” value stood at 100.00%. Moreover, the “Inhibition rate (%)” value in assay [4] (c 1 μM) is given as 100.00%. In addition, the “Inhibition rate (%) NCI-H446/EP” value in assay [5] (setting [10]) is 27.60%. Further, the “Inhibition rate (%) L-02” value in assay [6] (setting [10]) is on record as 87.67%.
